According to article PMC12040169 (PLOS Biology, 2025):

Assay: in vitro
Settings: human, hela cells, % viability

Row | Structure (SMILES) | viability at 28.5 h, 10 µM [%]
1 | COc1ccc(Cl)cc1NC(=O)C(=O)NCC1CCCO1 (centres unmarked) [CBK263823] | 91.8
2 | CN1CCN(c2cc(CNC(=O)c3ccnc(Cl)c3)ccn2)CC1 [CBK298275] | 92.4
3 | Cc1cnn(C2CN(CC(=O)N3CCc4sccc4C3)C2)c1 [CBK305097] | 86.8
4 | CCN(CC)C(=O)C1CCCN(C(=O)NCC(c2ccccc2)c2ccccc2)C1 (centres unmarked) [CBK156145] | 94.4
5 | O=C(c1nc[nH]n1)N1CCN(c2nccc(CCC(F)(F)F)n2)CC1 [CBK307306] | 106
6 | CSCCN1CCC2(CC1)CN(CC(N)=O)c1ccccc12 [CBK126801] | 92.9
7 | CCC(=O)N1CCC2(CC1)Nc1ccccc1-n1cccc12 [CBK283488] | 108
8 | CCc1nn(CC(=O)N(CC)CC)c(=O)c2cc3sccc3n12 [CBK284054] | 77.8
9 | c1ccc2c(c1)CCCN2CCc1c[nH]c2ccccc12 [CBK138330] | 97.3
10 | O=C(N1CCn2cnnc2C1)C1(c2ccccc2)CCCC1 [CBK283926] | 90.8
11 | CCn1c(SCC(=O)Nc2ccc(Br)cc2F)nnc1-c1ccc(OC)cc1 [CBK266172] | 100
12 | Fc1ccccc1Oc1nnnn1-c1ccccc1 [CBK002526] | 98.2
13 | COc1ccc(-c2csc(Nc3cccc(C(=O)O)c3)n2)cc1 [CBK286924] | 86.7
14 | Cc1nc2ccc(C(=O)N(C)CCN3CCCCC3)cc2s1 [CBK281919] | 93.4
15 | COc1ccc(-c2cc(Nc3ccccc3)ncn2)cc1 [CBK090911] | 93.9
16 | CCCOc1ccc(C(=O)NCc2ccccn2)cc1 [CBK269789] | 93.9

Row | Structure (SMILES) | viability at 28.5 h, 10 µM [%]
17 | CN(CCOc1ccccc1)c1cc(C2CC(N)C2)nc(N)n1 (centres unmarked) [CBK306849] | 97
18 | CSc1ccc2cc(CSc3nnc(-c4cccs4)n3CC(=O)O)c(Cl)nc2c1 [CBK295298] | 91.3
19 | Cc1nc(SCCC(=O)Nc2ccccc2C#N)nc2cc3c(cc12)CCC3 [CBK268812] | 90.2
20 | O=C(NCCNc1cnccn1)c1cc(Br)ccc1F [CBK253480] | 110
21 | CCN(CC)C(=O)c1ccc(NC(=O)CSc2n[nH]c(=O)n2CC2CCCO2)cc1 (centres unmarked) [CBK295186] | 77.6
22 | CS(=O)(=O)c1ccc(C(=O)Nc2nc(-c3ccccc3)cs2)cc1 [CBK287716] | 102
23 | Cc1cc(C)c2[nH]c(CC(=O)N(C)CCN(C)C)nc2c1 [CBK282727] | 74.3
24 | CCCNC(=O)c1nn2c(c1Cl)NC(c1cccs1)CC2C(F)(F)F (centres unmarked) [CBK307177] | 90.3
25 | CCOC(=O)NC(=O)C(C#N)/C=N/NC(=O)CCCNc1ncc(C(F)(F)F)cc1Cl (centres unmarked) [CBK008354] | 101
26 | O=C1/C(=C/c2ccc(OCc3cccc([N+](=O)[O-])c3)cc2)SC(=S)N1CCc1ccccc1 [CBK264641] | 92.6
27 | Cc1[nH]c(=O)[nH]c(=O)c1Cc1ccccc1 [CBK113244] | 113
28 | COc1ccc(CCNC(=S)n2cc(C)cn2)cc1OC [CBK267001] | 89
29 | CC(=O)N[C@H]1C[C@@H](Cc2cc(CCO)on2)C1(C)C [CBK289243] | 99.7
30 | Cc1ccc(F)c(CN2CCN(CCO)[C@@H]3CS(=O)(=O)C[C@@H]32)c1 [CBK307699] | 93.6
31 | O=C1NC2(CCN(C(=O)c3ccco3)CC2)Nc2ccccc21 [CBK284762] | 104
32 | CC(C)c1ccc(S(=O)(=O)n2ccn(-c3cccc(C(F)(F)F)c3)c2=O)cc1 [CBK106587] | 93.8
